How the values were obtained:
MMP13 in SW1353 cells = experiment: OSM/IL-1β signaling assay (MMP13 levels in SW1353 cells); assay type: cell-based; conditions: Homo sapiens; SW1353 cells, OSM and IL-1β triggered, MMP13 levels 48 hours after triggering; read-out: MMP13 EC50;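 further: secreted MMP13 captured by antibody, activated with APMA and its activity read by fluorescence, inhibition scaled between vehicle-treated triggered wells (0%) and untriggered wells (100%)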
[1] = Microsomal stability, human liver microsomes; assay type: in vitro ADME; conditions: percentage of compound remaining after 60 minutes, 3 μM compound
Protocol: (§1) 40 μL of deionised water was added to a well of a polypropylene Matrix 2D barcode labelled storage tube (Thermo Scientific) and pre-incubated at 37° C.
(§2) A co-factor containing MgCl2, glucose-6-phosphate and NADP+ was prepared in deionised water and placed on ice before use.
(§3) A final working solution containing liver microsomes (Xenotech of a species of interest (human, mouse, rat, dog), previously described G6PDH and co-factors was prepared and this mix was incubated for no longer than 20 minutes at room temperature.
(§4) 30 μL of the pre-heated compound dilution was added to 40 μL of pre-heated water in the Matrix tubes and 30 μL of the microsomal mix was added.
(§5) To measure percentage remaining of compound at time zero MeOH or ACN was added (1:1) to the well before adding the microsomal mix.
(§6) The samples which were not stopped are incubated at 37° C., 300 rpm and after 1 hour of incubation the reaction was stopped with MeOH or ACN (1:1).
(§7) After stopping the reaction the samples were mixed and placed on ice for 30 min to precipitate the proteins.
(§8) The samples were analyzed on LCMS with a flow rate of 1 mL/min. Solvent A was 15 mM ammonia and solvent B was methanol or acetonitrile, depending on the stop solution used. […] The percentage remaining after 1 hour incubation was calculated from time 0 and was calculated as the percentage remaining.
(§9) The data on microsomal stability are expressed as a percentage of the total amount of compound remaining after 60 minutes.

[2] = biological target: Recombinant human JAK2 catalytic domain (Homo sapiens (Human), UniProt O60674); experiment: JAK2 inhibition assay; assay type: biochemical; conditions: semi-quantitative score
Outline: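 Radiometric kinase reactions ran for 90 min at 30 °C and were stopped with phosphoric acid, then washed and counted by scintillation. Percent inhibition was set relative to vehicle and to 10 μM staurosporine background. IC50 was derived from dose-dilution series.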

[3] = biological target: Recombinant human JAK1 catalytic domain (Homo sapiens (Human), UniProt P23458); experiment: JAK1 inhibition assay; assay type: biochemical; conditions: semi-quantitative score
Outline: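 Radiometric assay read by scintillation counting after phosphoric-acid washes. Percent inhibition calculated from cpm relative to vehicle and 10 μM staurosporine control. IC50 derived from compound dose-dilution series.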

[4] = Microsomal stability, rat liver microsomes; assay type: in vitro ADME; conditions: percentage of compound remaining after 60 minutes, 3 μM compound
Protocol: as §1, §2, §3, §4, §5, §6, §7, §8, §9

[5] = system: JAK-STAT signalling in HeLa cells; experiment: JAK-STAT signalling assay (OSM-triggered pSTAT1(2)-luciferase reporter in HeLa cells); assay type: cell-based; conditions: Homo sapiens; HeLa cells, OSM-triggered pSTAT1(2)-luciferase reporter; read-out: STAT signalling EC50
Outline: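 HeLa cells transiently transfected with pSTAT1(2)-luciferase reporter plus LacZ internal control, incubated overnight at 37 °C, 10% CO2, then OSM-stimulated with compound. Luciferase read by Steadylite luminescence and normalised to β-galactosidase (ONPG); percent inhibition from controls, EC50 from dose-response.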

Recombinant human JAK2 catalytic domain, sequence (O60674 808-1132): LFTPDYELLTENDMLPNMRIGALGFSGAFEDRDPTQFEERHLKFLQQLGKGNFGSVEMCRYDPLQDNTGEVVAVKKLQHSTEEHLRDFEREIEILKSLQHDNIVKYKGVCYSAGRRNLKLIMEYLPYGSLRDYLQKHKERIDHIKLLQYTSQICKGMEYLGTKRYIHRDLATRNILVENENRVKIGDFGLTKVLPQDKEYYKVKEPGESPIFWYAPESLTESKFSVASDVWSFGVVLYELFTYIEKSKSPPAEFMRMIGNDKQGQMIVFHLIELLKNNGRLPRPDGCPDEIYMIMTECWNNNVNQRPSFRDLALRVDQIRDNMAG
Recombinant human JAK1 catalytic domain, sequence (P23458 850-1154): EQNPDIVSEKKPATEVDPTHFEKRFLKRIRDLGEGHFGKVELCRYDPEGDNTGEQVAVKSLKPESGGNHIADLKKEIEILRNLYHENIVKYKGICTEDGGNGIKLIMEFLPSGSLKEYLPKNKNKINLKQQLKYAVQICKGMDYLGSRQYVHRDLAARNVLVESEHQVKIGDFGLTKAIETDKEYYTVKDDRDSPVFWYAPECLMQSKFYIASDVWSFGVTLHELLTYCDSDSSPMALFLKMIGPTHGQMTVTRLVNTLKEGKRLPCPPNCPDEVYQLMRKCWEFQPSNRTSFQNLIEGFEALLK

Row | SMILES | EC50 (MMP13 in SW1353 cells) [nM] | Microsomal Stability Human (%) [1] | IC50 [2] [nM] | IC50 [3] [nM] | Microsomal Stability Rat (%) [4] | EC50 [5] [nM]
1 | O=C(Nc1nc2cccc(-c3ccc(-c4ccccc4)cc3)n2n1)C1CC1 [Compound 7, N-(5-(biphenyl-4-yl)-[1,2,4]triazolo[1,5-a]pyridin-2-yl)cyclopropanecarboxamide] | > 1000 | ** (** 26-50) | 101 to 500 | < 100 | ** (** 26-50) | > 1000
2 | O=C(Nc1ccc(-c2cccc3nc(NC(=O)C4CC4)nn23)cc1)c1ccccc1 [Compound 21, N-(4-(2-(cyclopropanecarboxamido)-[1,2,4]triazolo[1,5-a]pyridin-5-yl)phenyl)benzamide] | > 1000 | *** (*** 51-75) | 101 to 500 | < 100 | **** (**** 76-100) | > 1000
3 | O=C(Cc1ccccc1)Nc1ccc(-c2cccc3nc(NC(=O)C4CC4)nn23)cc1 [Compound 23, N-(5-(4-(2-phenylacetamido)phenyl)-[1,2,4]triazolo[1,5-a]pyridin-2-yl)cyclopropanecarboxamide] | > 1000 | * (* 0-25) | 101 to 500 | < 100 | ** (** 26-50) | > 1000
4 | O=C(Nc1nc2cccc(-c3ccc(OCCOc4ccc(F)cc4)cc3)n2n1)C1CC1 [Compound 115, N-(5-(4-(2-(4-fluorophenoxy)ethoxy)phenyl)-[1,2,4]triazolo[1,5-a]pyridin-2-yl)cyclopropanecarboxamide] | > 1000 | *** (*** 51-75) | 101 to 500 | < 100 | ** (** 26-50) | > 1000
5 | O=C(Nc1nc2cccc(-c3ccc(NCc4cccnc4)cc3)n2n1)C1CC1 [Compound 182, N-(5-(4-(pyridin-3-ylmethylamino)phenyl)-[1,2,4]triazolo[1,5-a]pyridin-2-yl)cyclopropanecarboxamide] | > 1000 | * (* 0-25) |  | < 100 | * (* 0-25) | > 1000
6 | COC(=O)c1ccc(COc2ccc(-c3cccc4nc(NC(=O)C5CC5)nn34)cc2)nc1 [Compound 190] | > 1000 | * (* 0-25) |  | < 100 | * (* 0-25) | > 1000
7 | O=C(Nc1nc2cccc(-c3ccc(OCc4ccc[n+]([O-])c4)cc3)n2n1)C1CC1 [Compound 196, Cyclopropanecarboxylic acid {5-[4-(1-hydroxy-pyridin-3-ylmethoxy)-phenyl]-[1,2,4]triazolo[1,5-a]pyridin-2-yl}-amide] | > 1000 | **** (**** 76-100) | 101 to 500 | < 100 | **** (**** 76-100) | > 1000
8 | O=C(Nc1nc2cccc(-c3ccc(OCc4ccc(Cl)nc4)cc3)n2n1)C1CC1 [Compound 198, Cyclopropanecarboxylic acid {5-[4-(6-chloro-pyridin-3-ylmethoxy)-phenyl]-[1,2,4]triazolo[1,5-a]pyridin-2-yl}-amide] | > 1000 | *** (*** 51-75) | < 100 | < 100 | *** (*** 51-75) | 101 to 500
9 | Cc1noc(C)c1CCOc1ccc(-c2cccc3nc(NC(=O)C4CC4)nn23)cc1 [Compound 201, Cyclopropanecarboxylic acid (5-{4-[2-(3,5-dimethyl-isoxazol-4-yl)-ethoxy]-phenyl}-[1,2,4]triazolo[1,5-a]pyridin-2-yl)-amide] | 501 to 1000 | * (* 0-25) | 101 to 500 | < 100 | * (* 0-25) | 101 to 500
10 | CC(=O)N(Cc1cccnc1)c1ccc(-c2cccc3nc(NC(=O)C4CC4)nn23)cc1 [Compound 202, Cyclopropanecarboxylic acid {5-[4-(acetyl-pyridin-3-ylmethyl-amino)-phenyl]-[1,2,4]triazolo[1,5-a]pyridin-2-yl}-amide] | > 1000 | * (* 0-25) | < 100 | < 100 | * (* 0-25) | > 1000
11 | O=C(Nc1nc2cccc(-c3ccc(CCc4ccccn4)cc3)n2n1)C1CC1 [Compound 211, Cyclopropanecarboxylic Acid {5-[4-(2-pyridin-2-yl-ethyl)-phenyl]-[1,2,4]triazolo[1,5-a]pyridin-2-yl}-amide] | 501 to 1000 | * (* 0-25) | < 100 | < 100 | * (* 0-25) | 501 to 1000
12 | O=C(Nc1nc2cccc(-c3ccc(CNc4ccc(Cl)cc4F)cc3)n2n1)C1CC1 [Compound 212, Cyclopropanecarboxylic acid (5-{4-[(4-chloro-2-fluoro-phenylamino)-methyl]-phenyl}-[1,2,4]triazolo[1,5-a]pyridin-2-yl)-amide] | 1 to 500 | *** (*** 51-75) | < 100 | < 100 | ** (** 26-50) | 101 to 500
13 | N#CCc1ccc(NCc2ccc(-c3cccc4nc(NC(=O)C5CC5)nn34)cc2)cc1 [Compound 224] | > 1000 | * (* 0-25) | < 100 | < 100 | * (* 0-25) | 101 to 500
14 | N#CCc1ccccc1NCc1ccc(-c2cccc3nc(NC(=O)C4CC4)nn23)cc1 [Compound 225, Cyclopropanecarboxylic acid (5-{4-[(2-cyanomethyl-phenylamino)-methyl]-phenyl}-[1,2,4]triazolo[1,5-a]pyridin-2-yl)-amide] | 1 to 500 | * (* 0-25) | < 100 | < 100 | * (* 0-25) | 101 to 500
15 | O=C(Nc1nc2cccc(-c3ccc(CNc4ccccc4F)cc3)n2n1)C1CC1 [Compound 226, Cyclopropanecarboxylic acid (5-{4-[(2-fluoro-phenylamino)-methyl]-phenyl}-[1,2,4]triazolo[1,5-a]pyridin-2-yl)-amide] | 501 to 1000 | * (* 0-25) | < 100 | < 100 | * (* 0-25) | 101 to 500
16 | NC(=O)c1ccc(NCc2ccc(-c3cccc4nc(NC(=O)C5CC5)nn34)cc2)cc1 [Compound 227, 4-{4-[2-(Cyclopropanecarbonyl-amino)-[1,2,4]triazolo[1,5-a]pyridin-5-yl]-benzylamino}-benzamide] | 501 to 1000 | ** (** 26-50) |  | < 100 | **** (**** 76-100) | > 1000
17 | O=C(Nc1nc2cccc(-c3ccc(CN4CCC(F)CC4)cc3)n2n1)C1CC1 [Compound 233, Cyclopropanecarboxylic acid {5-[4-(4-fluoro-piperidin-1-ylmethyl)-phenyl]-[1,2,4]triazolo[1,5-a]pyridin-2-yl}-amid] | 501 to 1000 | *** (*** 51-75) | < 100 | < 100 | ** (** 26-50) | > 1000
18 | COc1ccc(NCc2ccc(-c3cccc4nc(NC(=O)C5CC5)nn34)cc2)cn1 [Compound 236, Cyclopropanecarboxylic acid (5-{4-[(6-methoxy-pyridin-3-ylamino)-methyl]-phenyl}-[1,2,4]triazolo[1,5-a]pyridin-2-yl)-amide] | 1 to 500 | * (* 0-25) | < 100 | < 100 | * (* 0-25) | 501 to 1000
19 | O=C(Nc1nc2cccc(-c3ccc(CN4CCN(CC(F)(F)F)CC4)cc3)n2n1)C1CC1 [Compound 241, Cyclopropanecarboxylic acid (5-{4-[4-(2,2,2-trifluoro-ethyl)-piperazin-1-ylmethyl]-phenyl}-[1,2,4]triazolo[1,5-a]pyridin-2-yl)-amide] | > 1000 | *** (*** 51-75) | 101 to 500 | < 100 | **** (**** 76-100) | 501 to 1000
